According to patent US7005297B2, “Use of neuroactive compounds” (Council of Scientific and Industrial Research, priority 2003, dated 2006):
Marks after values point to notes of the source that are not given here.

Tests used:
[1] = test system: Drosophila melanogaster; test: negative geotaxis assay, height climbed by individual flies; type: in vivo
Procedure: (§1) Unless otherwise mentioned, standard methods of fly manipulation were followed. Standard fly medium consisting of agar-agar, maize powder, brown sugar, dried yeast and nipagin was used. Flies were cultured at 22±1° C., 60% RH, and 12 hrs light (9 AM to 9 PM) and 12 hours dark cycle. D. melanogaster wild type Oregon-R strain was used in the experiment. To obtain males for control and drug treatment, flies from identical cultures grown in glass vials were first allowed to lay eggs in milk bottles containing medium. Flies were shifted to fresh bottles every 12 hr. First 4 sets of bottles were discarded. Flies that emerged in subsequent bottles were only used. Those that emerged in the beginning were first discarded and then flies were collected twice at 12 hr interval. Flies collected each time were kept separately in a single bottle. Two days after first collection, males and females from both the bottles were separated. Males were then pooled together and shifted to a new bottle. Flies were used for control or drug treatment two days later.
Following morning after pooling males for treatment, drugs (Sigma-Aldrich Co, St. Louis, U.S.A.) were first dissolved in distilled water at following concentration: 33.3 mg/ml of strychnine (STR), 40 mg/ml of pentylenetetrazol (PTZ), 20 mg/ml of tetraethylammonium chloride (TEA), 10 mg/ml of lithium […] (LICA) and 2 mg/ml of nicotine (NICO). Appropriate volume of freshly made drug solutions were then poured in molten fly media, and mixed thoroughly, to achieve a final concentration of 3.33 mg/ml of STR, 4 mg/ml of PTZ, 2 mg/ml of TEA, 1 mg/ml of LICA, and 0.2 mg/ml of NICO. For control, i.e., normal food (NF), distilled water of same volume as drug solution was added in the medium and mixed. Following this, the molten media was dispensed in glass vials, stored overnight at 4° C. and then used for above treatment of flies. Thirty male flies were shifted to each of the […] treatment vials, NF, STR, PTZ, TEA, LICA and NICO. Flies were maintained at 22±1° C., 60% RH, and 12 hrs light (9 AM to 9 PM) and 12 hours dark cycle.
On 22nd day of the beginning of drug treatment, three males from each treatment were separately mated to a single virgin female each. The females were grown on NF and were never exposed to any drug at any time. The F1 progenies resulting from each pair mating were pooled together before being further used. F2 generation was obtained through mating in mass the F1 progenies. F1 to F2 flies were never exposed to any drug at any time.
Negative geotaxis assays for measuring height climbed and climbing speed, and horizontal locomotion assay for measuring distance walked—were performed at room temperature, between 9 AM to 9 PM. They were all performed at a specified area in a room, where same light sources were always used. While measuring various locomotor activities, extreme care was taken to ensure that the room is quiet, and the table onto which assays were performed undisturbed and vibration free. Utmost care was taken to ensure identical handling of flies, in minutest details. For measuring height climbed, climbing speed and distance walked, a single fly was randomly selected at a time. This was achieved by first inverting flies from a given treatment vial into an empty vial and then continuously and gently shaking and inverting both the vials in such a way that a single fly is finally trapped in the empty vial. Once trapped, all the three locomotor activities were measured using the same fly, height climbed, climbing speed and distance walked, in that order. One fly each from NF, STR, PTZ, PILO, TEA, LICA, and ESD, selected randomly, was first scored and then the same exercise was repeated for another two flies. Once a fly was scored for all the three locomotor activities, it was discarded. Flies were particularly checked for intact legs and wings, before they were used in negative geotaxis and horizontal locomotion assays.

[2] = test system: Drosophila melanogaster; conditions: F1 male and female progeny of drug-fed fathers, routine examination over 30 days
Procedure: as §1
Following morning after pooling males for treatment, drugs (Sigma-Aldrich Co, St. Louis, U.S.A.) were first dissolved in distilled water at following concentration: 33.3 mg/ml of strychnine (STR), 40 mg/ml of pentylenetetrazol (PTZ), 20 mg/ml of tetraethylammonium chloride (TEA), 10 mg/ml of lithium chloride (LICA) and 2 mg/ml of nicotine (NICO). […]

[3] = F1 males never exposed to drug, fathers drug-fed, assayed on 31st day of emergence, n=30, NF control 25.1
[4] = F2 females (second batch) never exposed to drug, grandfathers drug-fed, 8th day of emergence, n=30, NF control 21.3
[5] = drug exposed parent males, day 13 of treatment
[6] = drug-fed parent males, day 13 of treatment, drug in fly medium (STR 3.33, PTZ 4, TEA 2, LICA 1, NICO 0.2 mg/ml), n=30, NF control 20.86, asterisks = t-test vs NF (*5%, **1%, ***0.1%)

## O=C([O-])[O-].[Li+].[Li+] [LICA, lithium carbonate]
[1]; [3]
  Height climbed by flies, Mean (F1): 17.7*** cm
[1]; [4]
  Height climbed by flies, Mean (F2): 27.53** cm
[1]; [5]
  change in height climbed compared to normal food (NF): increase in the height climbed
[1]; [6]
  Height climbed by flies, Mean (Parents): 32.96*** cm

## CN1CCCC1c1cccnc1 (centres unmarked) [NICO, nicotine]
[2]
  gross locomotor activity compared to control: climbed very slowly
[1]; in vivo
  Height climbed by flies, Mean (F1): 10.86*** cm
  Height climbed by flies, Mean (F2): 29.36*** cm
  Height climbed by flies, Mean (Parents): 32.16*** cm
  change in height climbed compared to normal food (NF): increase in the height climbed

## C1CCc2nnnn2CC1 [PTZ, pentylenetetrazol]
[1]; [5]
  change in height climbed compared to normal food (NF): increase in the height climbed

## O=C1C[C@@H]2OCC=C3CN4CC[C@]56c7ccccc7N1[C@H]5[C@H]2[C@H]3C[C@H]46 [STR, strychnine]
[1]; [3]
  Height climbed by flies, Mean (F1): 16.56*** cm
[1]; [4]
  Height climbed by flies, Mean (F2): 29.83*** cm
[1]; [6]
  Height climbed by flies, Mean (Parents): 28** cm

## CC[N+](CC)(CC)CC.[Cl-] [TEA, tetraethylammonium chloride]
[1]; [3]
  Height climbed by flies, Mean (F1): 12.43*** cm
[1]; [4]
  Height climbed by flies, Mean (F2): 29.46*** cm
[1]; [5]
  change in height climbed compared to normal food (NF): increase in the height climbed
[1]; [6]
  Height climbed by flies, Mean (Parents): 32.4*** cm
